Activity calls are given as the source filed them.
Key:
[1] = cytotoxicity in HEK-293T cells, dose response, cytotoxicity control for BCR NF-kB inhibitor project, luminescence, B-cell screen hits (AID 489021); type: functional, cell-based;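 also: HEK-293T cells carrying an NF-kB luciferase reporter; cells exposed to compound for about 14 hours before viability readout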
[2] = target: T1, Carboxy-terminal domain RNA polymerase II polypeptide A small phosphatase 1 (Homo sapiens, UniProt Q9GZU7); assay: inhibitors of CTDSP1, concentration-response testing, biochemical assay, absorbance-based, actives from ultra-high-throughput screening (AID 540297); type: functional
T1 sequence (Q9GZU7 whole entry): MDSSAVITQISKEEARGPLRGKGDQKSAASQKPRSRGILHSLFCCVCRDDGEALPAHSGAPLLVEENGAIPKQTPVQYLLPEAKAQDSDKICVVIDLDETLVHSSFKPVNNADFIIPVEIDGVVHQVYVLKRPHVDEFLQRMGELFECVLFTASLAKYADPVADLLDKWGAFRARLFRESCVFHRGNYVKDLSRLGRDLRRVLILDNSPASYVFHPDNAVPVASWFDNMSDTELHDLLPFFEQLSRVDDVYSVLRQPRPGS

cells [3] = type: functional, cell-based
cells [4] = type: functional, cell-based; remark: listed apart in the source
[5] = target: T2, High affinity choline transporter 1 (Homo sapiens, UniProt Q9GZV3); assay: CHT inhibitors, dose response, cell-based, 5-point CRC, membrane potential dye (AID 504840); type: functional
T2 sequence (Q9GZV3 whole entry): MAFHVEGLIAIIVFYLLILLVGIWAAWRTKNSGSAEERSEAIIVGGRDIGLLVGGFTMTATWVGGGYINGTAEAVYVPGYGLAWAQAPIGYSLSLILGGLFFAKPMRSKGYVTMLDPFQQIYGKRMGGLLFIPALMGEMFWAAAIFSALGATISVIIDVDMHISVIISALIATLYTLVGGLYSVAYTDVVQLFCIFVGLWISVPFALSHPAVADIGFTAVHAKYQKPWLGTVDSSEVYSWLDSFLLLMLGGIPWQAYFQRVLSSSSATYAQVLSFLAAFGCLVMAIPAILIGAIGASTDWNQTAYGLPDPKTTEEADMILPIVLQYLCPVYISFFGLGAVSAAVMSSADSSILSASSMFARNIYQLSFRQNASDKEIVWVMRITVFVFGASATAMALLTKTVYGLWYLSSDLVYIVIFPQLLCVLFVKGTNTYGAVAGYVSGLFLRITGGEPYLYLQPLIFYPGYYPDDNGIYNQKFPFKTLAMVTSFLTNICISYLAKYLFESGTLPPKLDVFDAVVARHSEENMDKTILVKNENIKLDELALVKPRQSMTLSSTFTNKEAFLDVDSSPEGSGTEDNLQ

[6] = target: T3, Oxysterols receptor LXR-beta (Homo sapiens, UniProt P55055); type: functional, cell-based;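 also: agonist activity at LXR measured by a cell-based luminescence readout across a dose range, run as a counterscreen for daf-12 agonists; HEK293 cells with Gal4-LXR fusion and GAL4-driven luciferase reporter; potency for activation of Gal4-LXR reporter so compounds are agonists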
T3 sequence (P55055 whole entry): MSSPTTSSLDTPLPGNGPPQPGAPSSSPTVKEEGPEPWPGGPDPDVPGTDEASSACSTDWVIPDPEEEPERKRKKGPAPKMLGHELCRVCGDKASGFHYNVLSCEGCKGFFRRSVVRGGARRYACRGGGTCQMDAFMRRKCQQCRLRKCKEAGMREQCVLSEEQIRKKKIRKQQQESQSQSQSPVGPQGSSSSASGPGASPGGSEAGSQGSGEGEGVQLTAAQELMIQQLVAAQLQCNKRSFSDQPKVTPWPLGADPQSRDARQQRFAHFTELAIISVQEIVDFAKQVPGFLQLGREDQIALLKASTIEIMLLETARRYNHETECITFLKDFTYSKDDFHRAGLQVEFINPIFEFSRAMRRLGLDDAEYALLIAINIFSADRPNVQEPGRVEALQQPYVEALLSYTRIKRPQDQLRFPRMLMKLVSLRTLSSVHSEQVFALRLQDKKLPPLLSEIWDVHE

H4 = assay: Luminescence Cell-Based Dose Response HTS to Identify Activators of 5'UTR Stem-Loop Driven Prion Protein mRNA Translation in H4 Neuroglioblastoma Cells. [Related pubchem assays: 1829 (Project Summary), 1814 (Primary HTS)]; type: functional; settings: Homo sapiens
CAAX prenyl protease 2 = target: T4, CAAX prenyl protease 2 (Saccharomyces cerevisiae S288c, UniProt Q03530); type: biochemical
T4 sequence (Q03530 whole entry): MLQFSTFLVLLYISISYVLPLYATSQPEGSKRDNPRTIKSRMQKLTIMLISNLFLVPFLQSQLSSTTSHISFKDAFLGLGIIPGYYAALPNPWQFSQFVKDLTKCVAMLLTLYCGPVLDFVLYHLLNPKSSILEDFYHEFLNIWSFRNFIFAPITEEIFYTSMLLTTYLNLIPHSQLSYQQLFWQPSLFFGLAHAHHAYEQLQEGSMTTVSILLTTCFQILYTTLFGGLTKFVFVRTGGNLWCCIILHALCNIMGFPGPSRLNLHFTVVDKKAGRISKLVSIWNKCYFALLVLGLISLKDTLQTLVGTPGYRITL

[7] = Luminescence Cell-Based Dose Retest to Confirm Inhibitors of Cancer Stem Cells. [Related pubchem assays (depositor defined):AID2717, AID2721]; type: functional; settings: Homo sapiens
Nonstructural protein 1 = Nonstructural protein 1 (Influenza A virus, UniProt Q194T2); type: functional, Influenza A virus (A/California/07/2009(H1N1))
Vero [8] = assay: cells; type: functional; settings: Chlorocebus sabaeus
cells [9] = type: functional
[10] = inhibitors of intracellular T. cruzi replication, confirmation, NIH3T3 host cells, beta-gal luminescence (AID 2044); type: functional, cell-based;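 also: intracellular parasites grown in NIH/3T3 mouse fibroblasts as host cells; luminescent beta-galactosidase reporter signal from transgenic T. cruzi replicating inside host cells; inhibitors lower the luminescence signal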
[11] = target: Heat shock protein HSP 90-alpha (Homo sapiens, UniProt P07900); type: functional, organism-based
HeLa = assay: HeLa cell cytotoxicity, dose response, cytotoxicity control for MITF activator project, CellTiter-Glo luminescence, cherry-pick samples (AID 540259); type: functional, cell-based; settings: Homo sapiens
[12] = target: Glyceraldehyde-3-phosphate dehydrogenase (Homo sapiens, UniProt P04406)
[13] = target: Glucose-6-phosphate 1-dehydrogenase (Homo sapiens, UniProt P11413); assay: human G6PD enzyme inhibitors, dose response, selectivity assay for P. falciparum G6PD inhibitor project, biochemical, fluorescence (AID 504792); type: functional
Genome polyprotein = Genome polyprotein (dengue virus type 2, UniProt P29990); assay: Dengue-2 NS5 methyltransferase inhibitors, primary screen, biochemical, confirmation dose response (AID 588689); type: functional
BJ [14] = assay: cytotoxicity toward BJ-TERT fibroblasts, dose response, cell-based, RAS-independent, luminescence (AID 1933); type: functional; settings: Homo sapiens
BJ [15] = assay: cytotoxicity toward BJ-TERT-LT-ST fibroblasts, dose response, cell-based, RAS-independent, luminescence (AID 1935); type: functional; settings: Homo sapiens;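 also: BJ fibroblasts immortalized with TERT plus LT and ST oncogenes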
BJ [16] = assay: cells; type: functional, cell-based; settings: Homo sapiens
[17] = cytotoxicity toward DRD oncogenic fibroblasts, dose response, cell-based, non-viral oncogenic, luminescence (AID 1934); type: functional; settings: Homo sapiens
[18] = inhibitors of HIV Env-driven cell fusion, dose response, cherry-pick (AID 652057); type: functional, cell-based
[19] = CEM21 lymphoblast cell cytotoxicity, dose response, cytotoxicity control for viral fusion inhibitor project, CellTiter-Glo luminescence, cherry-picked (AID 652042); type: functional, cell-based;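 also: potency for signal decrease meaning cytotoxicity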
[20] = inhibitors of clade B AD8 Env fusion, dose response, cell-based, cherry-pick (AID 652062); type: functional;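 also: luciferase signal from cell-cell fusion driven by HIV-1 clade B AD8 Env; potency is for inhibitors of fusion seen as a drop in luminescence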
[21] = ZM109 Env clade C HIV-1 fusion inhibitors, dose response, HeLa effector, CEM target cells, luciferase, cherry-pick (AID 652058); type: functional, cell-based
Vero [22] = assay: Vero cell cytotoxicity, cytotoxicity control for flavivirus capping enzyme inhibitors (AID 588742); type: functional; settings: Chlorocebus sabaeus

Sequence of Nonstructural protein 1 (Q194T2 whole entry): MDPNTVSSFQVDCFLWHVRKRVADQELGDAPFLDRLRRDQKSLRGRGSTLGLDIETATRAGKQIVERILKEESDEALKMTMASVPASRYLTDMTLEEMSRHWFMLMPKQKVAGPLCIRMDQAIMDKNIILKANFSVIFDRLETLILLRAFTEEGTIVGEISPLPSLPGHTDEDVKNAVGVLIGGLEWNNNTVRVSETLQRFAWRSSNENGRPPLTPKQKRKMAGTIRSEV
Sequence of Glucose-6-phosphate 1-dehydrogenase (P11413 whole entry): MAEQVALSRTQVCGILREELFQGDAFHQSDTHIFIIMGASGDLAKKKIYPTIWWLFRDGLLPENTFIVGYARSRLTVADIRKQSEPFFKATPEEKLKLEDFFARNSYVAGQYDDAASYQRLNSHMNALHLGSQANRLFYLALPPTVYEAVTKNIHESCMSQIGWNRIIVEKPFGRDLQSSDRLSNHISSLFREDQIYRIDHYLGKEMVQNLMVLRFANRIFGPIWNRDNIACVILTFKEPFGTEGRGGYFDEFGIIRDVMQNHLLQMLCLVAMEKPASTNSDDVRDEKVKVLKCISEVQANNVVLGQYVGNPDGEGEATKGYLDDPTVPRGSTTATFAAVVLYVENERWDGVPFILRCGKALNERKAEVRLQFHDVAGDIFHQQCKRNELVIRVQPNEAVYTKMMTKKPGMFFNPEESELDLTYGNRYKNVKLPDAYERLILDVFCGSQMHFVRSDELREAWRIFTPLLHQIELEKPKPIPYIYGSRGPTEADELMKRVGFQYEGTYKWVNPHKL
Sequence of Genome polyprotein (P29990 2492-3391 limits assumed): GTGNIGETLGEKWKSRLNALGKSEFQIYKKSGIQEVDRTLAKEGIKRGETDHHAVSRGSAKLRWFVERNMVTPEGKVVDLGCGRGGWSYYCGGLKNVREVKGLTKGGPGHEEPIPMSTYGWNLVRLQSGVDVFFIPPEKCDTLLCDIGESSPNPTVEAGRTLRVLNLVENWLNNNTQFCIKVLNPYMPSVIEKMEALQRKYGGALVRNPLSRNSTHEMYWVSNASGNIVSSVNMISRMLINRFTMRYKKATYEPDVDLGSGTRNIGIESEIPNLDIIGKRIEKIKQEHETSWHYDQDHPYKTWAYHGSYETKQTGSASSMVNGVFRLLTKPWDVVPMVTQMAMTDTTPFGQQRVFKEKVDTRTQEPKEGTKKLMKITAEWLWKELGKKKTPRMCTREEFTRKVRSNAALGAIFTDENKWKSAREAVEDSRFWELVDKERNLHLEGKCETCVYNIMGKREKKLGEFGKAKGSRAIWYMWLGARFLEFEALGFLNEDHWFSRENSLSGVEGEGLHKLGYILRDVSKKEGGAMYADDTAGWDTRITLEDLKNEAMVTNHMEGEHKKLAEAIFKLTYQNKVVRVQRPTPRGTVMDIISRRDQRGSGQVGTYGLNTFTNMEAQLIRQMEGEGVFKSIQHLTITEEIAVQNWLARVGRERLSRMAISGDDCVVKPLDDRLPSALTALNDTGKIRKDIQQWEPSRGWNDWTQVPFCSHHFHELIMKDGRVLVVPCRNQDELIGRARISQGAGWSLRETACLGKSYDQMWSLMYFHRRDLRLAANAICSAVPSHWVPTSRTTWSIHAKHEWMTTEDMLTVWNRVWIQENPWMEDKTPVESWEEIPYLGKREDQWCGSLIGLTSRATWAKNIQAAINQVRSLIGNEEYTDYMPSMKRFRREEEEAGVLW
Sequence of Glyceraldehyde-3-phosphate dehydrogenase (P04406 whole entry): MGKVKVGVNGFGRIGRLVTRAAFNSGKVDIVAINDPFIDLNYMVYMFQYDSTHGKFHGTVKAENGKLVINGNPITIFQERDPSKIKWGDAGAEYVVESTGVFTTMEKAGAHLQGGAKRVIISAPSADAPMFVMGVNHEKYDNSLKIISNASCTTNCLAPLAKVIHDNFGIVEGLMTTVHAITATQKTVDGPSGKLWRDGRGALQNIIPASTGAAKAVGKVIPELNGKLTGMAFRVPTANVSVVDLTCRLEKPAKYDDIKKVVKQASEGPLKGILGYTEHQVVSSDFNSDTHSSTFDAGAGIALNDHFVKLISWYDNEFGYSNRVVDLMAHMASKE

## CCOc1ccc(/C=C2\SC(=S)N(CCC(=O)Nc3ccc(C(=O)O)cc3)C2=O)cc1
[1]
  IC50: > 80 µM (inactive)
[2]
  IC50: 1.88 µM (active)

## CCn1c(=O)c2cc(C(=O)NC(C)C)sc2c2ccccc21
[1]
  IC50: 27.6 µM (inactive)

## Cc1ccc(CSc2nnc(CCCCCNC(=O)OC(C)(C)C)o2)cc1
Cells [3]
  EC50: > 350 µM (not active)
Cells [4]
  EC50: > 350 µM (not active)

## Fc1ccc(-c2nc3c(-c4ccccc4)cnn3cc2CCN2CCOCC2)cc1
[5]
  IC50: 13.2 µM (active)

## O=C(CCCc1ccccc1)NC12CC3CC(CC(C3)C1)C2
[6]
  EC50: > 67.5 µM (inactive)
H4
  EC50: > 120 µM (not active)

## CN1CCN(C(=O)c2ccc(-c3cccs3)s2)CC1
CAAX prenyl protease 2
  AC50: 32.5 µM (active)

## CC(C)N1CCN(Cc2ccc(OCc3ccccc3)cc2)CC1CCO (centres undefined)
[7]
  AC50: 3.36 µM (active)
CAAX prenyl protease 2
  AC50: 72.9 µM (active)

## Cc1ccc(S(=O)(=O)N2CCOCC2)cc1NC(=O)CNCc1ccccn1
Nonstructural protein 1
  IC50: 18 µM (active)

## CCOc1cc2nc(-c3ccc(OC)c(OC)c3)nc(N3CCOCC3)c2cc1OC
[1]
  IC50: > 80 µM (inactive)

## CCN(Cc1ccccc1)S(=O)(=O)c1ccc(C(=O)N(CCCN(C)C)c2nc3ccc(F)cc3s2)cc1
Vero [8]
  CC50: > 25 µM (active)

## Nc1nnc(Sc2ncccc2[N+](=O)[O-])s1
Cells [9]
  IC50: 15.3 µM (active)

## COc1cccc(NC(=O)c2cnc(SC)nc2)c1
Cells [9]
  IC50: 15.3 µM (active)

## CC(C)N1C(=O)/C(=C\c2nc3ccccc3c(=O)n2-c2ccccc2)c2ccccc21
[10]
  EC50: 1.36 µM (active)
[7]
  AC50: 8.71 µM (active)
Nonstructural protein 1
  IC50: 50.5 µM (active)

## CCOC(=O)c1c(-c2ccc(C)cc2C)csc1NC(=O)CSc1nnnn1C
Vero [8]
  CC50: 23.2 µM (active)

## Cc1ccccc1N=C(S)N(CCN(C)C)C(C)c1ccccn1 (centres undefined)
Nonstructural protein 1
  IC50: 64.5 µM (active)

## Cc1ccc(N=Nc2ccc(O)cc2)c(Br)c1
[6]
  EC50: > 67.5 µM (inactive)
[11]
  AC50: 7.83 µM (active)
HeLa
  AC50: 39.2 µM (active)
[7]
  AC50: 6.26 µM (active)

## CCCCc1ccc(NC(S)=NCC2CCCO2)cc1 (centres undefined)
[5]
  IC50: 15.8 µM (active)

## Cc1cc(N/C=C/C(=O)c2ccc(Br)cc2)no1
Cells [3]
  EC50: > 350 µM (not active)
Cells [4]
  EC50: 59.3 µM (active)

## O=C(C1=NN[C@@H]2C(=O)N(c3cccc(C(F)(F)F)c3)C(=O)[C@H]12)C(c1ccccc1)c1ccccc1
Cells [3]
  EC50: > 350 µM (not active)
Cells [4]
  EC50: > 350 µM (not active)

## OC(c1ccccn1)(c1ccccn1)c1ccccn1
Nonstructural protein 1
  IC50: 10.9 µM (active)

## Cc1ccc(SCC(=O)Nc2nnc[nH]2)cc1
[12]
  IC50: > 10 µM (inconclusive)

## Cc1ccc(-n2ncc3c2CCCC3NC(=O)c2ccccc2N2CCOCC2)cc1C (centres undefined)
[11]
  AC50: 0.984 µM (active)

## O=C(/C=C/c1ccccc1)NCCc1nc2ccccc2[nH]1
Cells [3]
  EC50: > 350 µM (not active)
Cells [4]
  EC50: > 350 µM (not active)

## Cc1ccc(-n2ncc3ccccc3c2=O)cc1Cl
[6]
  EC50: > 67.6 µM (inactive)

## Sc1nc2c[nH]c(S)nc-2n1
[13]
  IC50: > 80 µM (inactive)

## C#CCN(Cc1ccccc1)S(=O)(=O)C=C
[1]
  IC50: > 80 µM (inactive)

## O=C(O)C(Cc1ccccc1)N1C(=O)C=CC1=O (centres undefined)
[13]
  IC50: > 80 µM (inactive)
Genome polyprotein
  IC50: > 100 µM (active)

## CCCCCCN1C[C@@H](n2cc(COC(=O)c3ccccc3)nn2)[C@H](O)C[C@@H]1c1ccc(C)cc1
Vero [8]
  CC50: > 25 µM (active)

## COc1ccc(/C=N/n2cnc3c4cc(F)ccc4nc-3c2O)cc1CN1CCCC1
BJ [14]
  EC50: 5.03 µM (inconclusive)
BJ [15]
  EC50: 4.92 µM (active)
BJ [16]
  EC50: 9.17 µM (inconclusive)
[17]
  EC50: 5.47 µM (inconclusive)

## CN(C)c1ccc(N=Nc2nccs2)cc1
[6]
  EC50: > 67.4 µM (inactive)

## CC(C)C#Cc1ccc2c(c1)O[C@@H](CN(C)C(=O)C1CCCCC1)[C@H](C)CN([C@H](C)CO)S2(=O)=O
[18]
  AC50: 21.2 µM (active)
[19]
  AC50: 21.3 µM (active)

## O=C(C[C@H]1CC[C@@H](NC(=O)c2ccccc2)[C@H](CO)O1)NCc1ccc(Oc2ccccc2)cc1
[20]
  AC50: 4.3 µM (active)
[18]
  AC50: 3.8 µM (active)
[19]
  AC50: 62.1 µM (active)
[21]
  AC50: 0.349 µM (active)

## COc1ccc(-c2cc(C(F)(F)F)c3c(=O)n(-c4ccccc4)[nH]c3n2)cc1
Genome polyprotein
  IC50: 44.2 µM (active)
Vero [22]
  CC50: > 40 µM (active)

Reference: ChEMBL document CHEMBL1201862, “PubChem BioAssay data set” (2004)
